Molecular target: T1, ZtrLac1A (Zymoseptoria tritici, UniProt F9XCG9)
T1 construct: gene MYCGRDRAFT_109666; mature protein residues 46-723, native signal peptide removed; catalytic module (556 residues) plus linker plus CBM20; secreted by Pichia pastoris X-33 (pPICZalphaA); N-glycosylated; 79 kDa calculated, 93 kDa on SDS-PAGE; EC 1.10.3.2
T1 sequence (F9XCG9 46-723): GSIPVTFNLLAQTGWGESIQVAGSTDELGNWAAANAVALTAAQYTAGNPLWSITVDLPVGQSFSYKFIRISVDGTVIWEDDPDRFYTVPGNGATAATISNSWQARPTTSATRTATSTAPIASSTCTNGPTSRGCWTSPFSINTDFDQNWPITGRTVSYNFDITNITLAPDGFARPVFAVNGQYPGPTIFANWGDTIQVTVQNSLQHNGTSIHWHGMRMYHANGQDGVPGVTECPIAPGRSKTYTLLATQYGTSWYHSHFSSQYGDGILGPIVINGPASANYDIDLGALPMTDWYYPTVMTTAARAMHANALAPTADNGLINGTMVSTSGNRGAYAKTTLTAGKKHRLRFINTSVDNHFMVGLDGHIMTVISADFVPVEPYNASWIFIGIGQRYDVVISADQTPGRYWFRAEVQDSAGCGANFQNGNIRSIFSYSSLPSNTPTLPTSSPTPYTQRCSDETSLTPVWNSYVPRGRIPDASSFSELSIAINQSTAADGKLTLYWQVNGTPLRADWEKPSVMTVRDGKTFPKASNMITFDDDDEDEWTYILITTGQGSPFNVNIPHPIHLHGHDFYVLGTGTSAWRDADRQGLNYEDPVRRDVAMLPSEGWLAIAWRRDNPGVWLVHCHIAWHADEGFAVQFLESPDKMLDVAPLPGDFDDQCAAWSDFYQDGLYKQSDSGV
Assay: isothermal titration calorimetry, one-site model
Conditions: 20 mM sodium acetate, pH 5.5, 25 °C; starch mimic, CBM20 starch-binding module, not the laccase active site
Source text: isothermal titration calorimetry, one-site model on ZtrLac1A | ZtrLac1A binds to β-CD with an association constant of Ka

OC[C@H]1O[C@@H]2O[C@H]3[C@H](O)[C@@H](O)[C@@H](O[C@H]4[C@H](O)[C@@H](O)[C@@H](O[C@H]5[C@H](O)[C@@H](O)[C@@H](O[C@H]6[C@H](O)[C@@H](O)[C@@H](O[C@H]7[C@H](O)[C@@H](O)[C@@H](O[C@H]8[C@H](O)[C@@H](O)[C@@H](O[C@H]1[C@H](O)[C@H]2O)O[C@@H]8CO)O[C@@H]7CO)O[C@@H]6CO)O[C@@H]5CO)O[C@@H]4CO)O[C@@H]3CO [β-CD, β-cyclodextrin]
Kd: 32.6 ± 2.4 µM
